The values that follow come from ChEMBL document CHEMBL2021881, “Ianthellamide A, a selective kynurenine-3-hydroxylase inhibitor from the Australian marine sponge Ianthella quadrangulata” (Bioorg Med Chem Lett, 2012).

The IC50 is the midpoint of a concentration-inhibition curve.

The source made the active and inactive calls. The rule behind the calls is not given here.

Test [1] addresses Kynurenine 3-monooxygenase (Rattus norvegicus) (UniProt O88867). Briefly: (§1) Inhibition of kynurenine-3-hydroxylase in rat liver homogenates assessed as effect on production of 3-hydroxy kynurenine incubated for 1 hr by HPLC. In kind it is tissue-based.
Test [2] addresses Kynurenine 3-monooxygenase (Rattus norvegicus, UniProt O88867). The test is described as §1. The format is tissue-based.
The target in test [3] is Kynurenine 3-monooxygenase (Rattus norvegicus) (UniProt O88867). Briefly: Inhibition of kynurenine-3-hydroxylase in rat liver homogenates assessed as effect on production of 3-hydroxy kynurenine up to 125 uM incubated for 1 hr by HPLC. The format is tissue-based.
Test [4] has as its target T1, Kynureninase (Rattus norvegicus) (UniProt P70712).
T1 sequence (whole entry): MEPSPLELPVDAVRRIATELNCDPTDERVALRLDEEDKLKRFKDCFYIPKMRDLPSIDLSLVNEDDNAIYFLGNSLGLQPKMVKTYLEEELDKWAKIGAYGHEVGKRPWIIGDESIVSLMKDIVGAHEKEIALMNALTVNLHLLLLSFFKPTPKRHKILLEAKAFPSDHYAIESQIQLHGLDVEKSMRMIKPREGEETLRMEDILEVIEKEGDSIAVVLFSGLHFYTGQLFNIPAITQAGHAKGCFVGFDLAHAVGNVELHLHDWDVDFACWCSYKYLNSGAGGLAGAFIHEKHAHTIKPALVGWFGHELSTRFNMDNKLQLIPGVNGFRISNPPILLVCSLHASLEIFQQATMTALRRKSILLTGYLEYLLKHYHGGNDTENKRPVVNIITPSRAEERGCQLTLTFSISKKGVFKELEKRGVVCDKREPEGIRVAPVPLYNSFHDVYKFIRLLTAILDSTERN
In words: Inhibition of kynureninase in rat liver homogenates assessed as effect on production of anthranilic acid up to 125 uM incubated for 30 mins by HPLC. In kind it is tissue-based.

For test [5], the target named is T1, Kynureninase (Rattus norvegicus). In words: Inhibition of kynureninase in rat liver homogenates assessed as effect on production of anthranilic acid at >125 uM incubated for 30 mins by HPLC. The format is tissue-based.
Test [6] concerns Rattus norvegicus. Briefly: Effect on extracellular kynurenic acid in rat brain dosed at 200 mg/kg, ip by in-vivo microdialysis measured for 6 hrs post dose (reference value: 1.55 +/- 0.05 pg/ml). The format is functional. Conditions: route intraperitoneal.
Test [7] concerns Rattus norvegicus. In words: Inhibition of kynurenine-3-hydroxylase in rat brain assessed as increase in Increase in extracellular kynurenic acid level at 200 mg/kg, ip coadministered with 100 mg/kg kynurenine by in-vivo microdialysis measured within 25 mins post dose relative to untreated control. In kind it is functional, organism-based.
Test [8] concerns Rattus norvegicus. In words: Inhibition of kynurenine-3-hydroxylase in rat brain assessed as increase in Increase in extracellular kynurenic acid level at 200 mg/kg, ip coadministered with 100 mg/kg kynurenine by in-vivo microdialysis measured at 135 mins post dose relative to untreated control. In kind it is functional, organism-based.
Test [9] relates to Rattus norvegicus. In words: Inhibition of kynurenine-3-hydroxylase in rat brain assessed as increase in Increase in extracellular kynurenic acid level at 200 mg/kg, ip coadministered with 100 mg/kg kynurenine by in-vivo microdialysis measured up to 335 mins post dose relative to untreated control. The format is functional.
Test [10] concerns Rattus norvegicus. Briefly: Inhibition of kynurenine-3-hydroxylase in rat brain assessed as increase in Increase in extracellular kynurenic acid level at 200 mg/kg, ip coadministered with 100 mg/kg kynurenine by in-vivo microdialysis measured at 5 hrs post dose relative to untreated control. The format is functional, organism-based.

Kynurenine 3-monooxygenase (Rattus norvegicus), sequence (O88867 whole entry, looked up): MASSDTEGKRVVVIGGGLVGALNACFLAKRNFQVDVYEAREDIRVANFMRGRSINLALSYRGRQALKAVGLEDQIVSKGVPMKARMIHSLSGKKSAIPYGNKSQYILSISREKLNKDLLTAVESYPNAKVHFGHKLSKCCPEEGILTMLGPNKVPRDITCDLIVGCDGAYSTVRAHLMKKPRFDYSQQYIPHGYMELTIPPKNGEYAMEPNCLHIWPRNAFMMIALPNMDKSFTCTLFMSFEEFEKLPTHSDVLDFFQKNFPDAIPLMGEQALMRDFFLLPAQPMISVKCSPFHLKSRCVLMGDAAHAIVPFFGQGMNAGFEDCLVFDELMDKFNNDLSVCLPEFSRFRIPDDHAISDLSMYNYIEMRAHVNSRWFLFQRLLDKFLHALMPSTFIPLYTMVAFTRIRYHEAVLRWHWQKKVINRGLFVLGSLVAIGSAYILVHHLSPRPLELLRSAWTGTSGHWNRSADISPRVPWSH
Kynurenine 3-monooxygenase, sequence (O88867 whole entry): as the sequence (O88867 whole entry, looked up) above

Turning to `CC(=O)NCCCO[C@@H](CN)c1cc(Br)c(OS(=O)(=O)O)c(Br)c1` [IANTHELLAMIDE A], the inhibition result in test [1] is “Dose-dependent effect”. Besides, in test [2], the IC50 amounted to 1500 nM. Besides, the inhibition result in [3] and in [5] was “Active” each time. In addition, in [4], the inhibition entry was “inactive”. In the test with Rattus norvegicus [6], this molecule registered an Activity of 1.72 pg/µL. The result in the test on Rattus norvegicus [7], in the test on Rattus norvegicus [8] and in the test on Rattus norvegicus [10] was Active. Besides, the “fold change (FC)” value in the test with Rattus norvegicus [9] is on record as 20.
